Two molecules from patent publication US4321265A, “7α-Methoxycephalosporins” (Toyama Chemical Co., Ltd., priority 1977, dated 1982) can be followed below.

In brackets after ≈: the same amount, converted by molar mass. Where two headings read alike, the source gives them in different places.

For data set [1], the target named is T1, β-lactamase (cephalosporinase, C. freundii GN-346) (Citrobacter freundii, UniProt P05193).
T1 construct: producing bacteria; endogenous in cells; host or cells: C. freundii GN-346
T1 sequence (P05193 21-381): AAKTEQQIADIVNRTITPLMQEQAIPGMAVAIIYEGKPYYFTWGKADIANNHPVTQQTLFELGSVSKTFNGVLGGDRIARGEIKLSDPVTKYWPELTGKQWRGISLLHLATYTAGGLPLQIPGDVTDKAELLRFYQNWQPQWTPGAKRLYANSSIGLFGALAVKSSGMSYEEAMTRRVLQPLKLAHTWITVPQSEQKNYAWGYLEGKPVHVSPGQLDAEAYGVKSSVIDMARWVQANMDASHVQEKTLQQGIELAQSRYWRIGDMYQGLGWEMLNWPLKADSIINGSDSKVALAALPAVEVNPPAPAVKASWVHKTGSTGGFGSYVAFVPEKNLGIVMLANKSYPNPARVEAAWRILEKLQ
Nature of the data set: Inhibitory dose to β-lactamase, iodometric method of Perret, Cefazolin as substrate. The data set is classed as biochemical. The settings on record: read-out: Inhibitory dose to β-lactamase (ID50) (converted).

In data set [2] the test system is S. marcescens W-35. Nature of the data set: Infection-protective activity in mice. The note with it: subcutaneous, one hour after intraperitoneal inoculation; challenge dose 2.5 × 10^5 cells/mouse; ICR mice. It counts as in vivo, ICR-strain mice (male). From the text:
Four-week old ICR-strain mice (male) in groups, each group consisting of five mice, were inoculated intraperitoneally with a prescribed quantity of a pathogenic bacterium suspended in 5% mucin. After one hour from the inoculation, the mice were subcutaneously administered with the test preparation to determine the infection-protective activity. The figures in Table 4 represent the protective activity in terms of ED50.

Data set [3] concerns Ser. marcescens W-35. In words: Minimum inhibitory concentration (MIC), Heart Infusion agar. The note with it: Serratia marcescens, W35, 20 h. It counts as cell-based. As to the method:
(§1) Antibacterial activities of the representative compounds (Ib) of the 7α-methoxycephalosporins according to this invention are shown in Table 1. [drawing 20]
The figures given in Table 1 represent the minimum inhibitory concentration (MIC in mcg/ml) of each compound, which was determined according to the method described in "Chemotherapy (Society of Chemotherapy, Japan), Vol. 16, 98-99 (1968)": A culture obtained by cultivating the test bacterium in a Heart Infusion broth (Eiken Kagaku Co.) was inoculated into a Heart Infusion agar medium (Eiken Kagaku Co.). After 20 hours of the incubation at 37° C., the growth of the bacterium was inspected to determine the minimum inhibitory concentration (MIC in mcg/ml). […]
(§2) (1) Minimum inhibitory concentration (MIC in mcg/ml).

In data set [4] the target is T2, β-lactamase (cephalosporinase, E. coli GN-5482) (Escherichia coli, UniProt P00811).
T2 construct: producing bacteria; endogenous in cells; host or cells: E. coli GN-5482
T2 sequence (P00811 20-377): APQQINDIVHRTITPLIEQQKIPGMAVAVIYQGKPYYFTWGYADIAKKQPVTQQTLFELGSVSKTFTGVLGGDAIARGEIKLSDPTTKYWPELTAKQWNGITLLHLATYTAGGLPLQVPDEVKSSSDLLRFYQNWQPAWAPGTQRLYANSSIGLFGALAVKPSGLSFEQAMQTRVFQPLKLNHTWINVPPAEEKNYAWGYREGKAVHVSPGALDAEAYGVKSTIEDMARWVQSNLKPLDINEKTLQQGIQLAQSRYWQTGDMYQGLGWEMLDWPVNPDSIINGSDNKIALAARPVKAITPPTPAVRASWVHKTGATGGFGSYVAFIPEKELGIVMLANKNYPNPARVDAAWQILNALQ
Nature of the data set: Inhibitory dose to β-lactamase, iodometric method of Perret, Cefazolin as substrate. The data set is classed as biochemical.

The target of data set [5] is T3, β-lactamase (cephalosporinase, S. marcescens W-8) (Serratia marcescens, UniProt P18539).
T3 construct: producing bacteria; endogenous in cells; host or cells: S. marcescens W-8
T3 sequence (P18539 22-376): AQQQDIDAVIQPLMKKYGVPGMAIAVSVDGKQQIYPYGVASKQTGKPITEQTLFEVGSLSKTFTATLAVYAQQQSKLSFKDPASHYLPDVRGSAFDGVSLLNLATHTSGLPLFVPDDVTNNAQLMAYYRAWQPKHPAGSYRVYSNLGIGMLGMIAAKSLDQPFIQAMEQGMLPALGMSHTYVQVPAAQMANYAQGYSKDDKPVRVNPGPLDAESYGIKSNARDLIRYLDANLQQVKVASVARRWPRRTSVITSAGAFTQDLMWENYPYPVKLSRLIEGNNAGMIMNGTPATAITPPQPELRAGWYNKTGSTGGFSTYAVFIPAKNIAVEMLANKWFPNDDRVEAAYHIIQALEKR
Described as above. The note with it: read-out: Inhibitory dose to β-lactamase (ID50) (converted). The data set is classed as biochemical.

Data set [6] in a line: Toxicity (LD50). The note with it: mouse, in vivo; ICR-strain mice; intravenous. An excerpt: The 7α-methoxycephalosporins of this invention are low-toxic.
For data set [7], the system named is Penicillinase (E. coli TK-3). Nature of the data set: Stability to β-lactamase, iodometry (Perret). The data set is classed as biochemical. The note with it: E. coli TK-3 penicillinase; PCG = 100; 30° C., pH 7.0. As to the method: (§3) The stability to β-lactamase was examined by iodometry at 30° C. by the method of Perret (Perret, C. J., "Iodometric assay of penicillinase", Nature, 174, 1012-1013 (1954)), except that a 0.1 M phosphate buffer solution (pH 7.0) was used in place of the 0.2 M phosphate buffer solution (pH 6.5). The stability of each compound was shown in Table 2 in terms of relative degree of hydrolysis, assuming the stability of Cephaloridin (CER) to cephalosporinase as 100 and the stability of Penicillin G (PCG) to penicillinase as 100.

The target of data set [8] is T4, Cephalosporinase (S. marcescens W-8) (Serratia marcescens, UniProt P18539).
T4 construct: native preparation, details not in excerpts
T4 sequence (P18539 22-376): as above
In words: Stability to β-lactamase, iodometry (Perret). The note with it: S. marcescens W-8 cephalosporinase; CER = 100; 30° C., pH 7.0. It counts as biochemical. As to the method: as §3

Data set [9] has as its system Penicillinase (P. aeruginosa GN-3379). Nature of the data set: Stability to β-lactamase, iodometry (Perret). It counts as biochemical. The settings on record: P. aeruginosa GN-3379 penicillinase; PCG = 100; 30° C., pH 7.0. As to the method:
as §3

Data set [10] concerns the target T5, Cephalosporinase (E. coli GN-5482) (Escherichia coli, UniProt P00811).
T5 construct: native preparation, details not in excerpts
In words: Stability to β-lactamase, iodometry (Perret). It counts as biochemical. The note with it: E. coli GN-5482 cephalosporinase; CER = 100; 30° C., pH 7.0. As to the method: as §3

Data set [11] deals with Penicillinase (K. pneumoniae Y-4). Nature of the data set: Stability to β-lactamase, iodometry (Perret). The data set is classed as biochemical. The note with it: K. pneumoniae Y-4 penicillinase; PCG = 100; 30° C., pH 7.0. As to the method: as §3
The test system of data set [12] is Acinetobacter caloaceticus A-6. In words: Minimum inhibitory concentration (MIC), Heart Infusion agar. It counts as cell-based. The note with it: Acinetobacter, A6, 20 h, read-out: minimum inhibitory concentration (MIC). As to the method:
as §1
(§4) The figures given in Table 1 represent the minimum inhibitory concentration (MIC in mcg/ml) of each compound, which was determined according to the method described in "Chemotherapy (Society of Chemotherapy, Japan), Vol. 16, 98-99 (1968)": A culture obtained by cultivating the test bacterium in a Heart Infusion broth (Eiken Kagaku Co.) was inoculated into a Heart Infusion agar medium (Eiken Kagaku Co.). After 20 hours of the incubation at 37° C., the growth of the bacterium was inspected to determine the minimum inhibitory concentration (MIC in mcg/ml). The inoculation rate of the bacterium was 10^4 cells/plate (10^6 cells/ml).
as §2

The subject of data set [13] is S. aureus F-19 (Penicillinase-producing bacterium). Described as above. It counts as cell-based. The settings on record: Staphylococcus aureus, 20 h, read-out: minimum inhibitory concentration (MIC). As to the method:
as §1, §4, §2

Data set [14] relates to Ser. marcescens W-8. The description is as above. The data set is classed as cell-based. The note with it: Serratia marcescens, W8, 20 h, read-out: minimum inhibitory concentration (MIC). As to the method: as §1, §4, §2
Data set [15] relates to Citrobacter N-7. The description is as above. It counts as cell-based. The note with it: Citrobacter, N7, 20 h, read-out: minimum inhibitory concentration (MIC). As to the method: as §1, §4, §2
For data set [16], the system named is Klebsiella spp. Y-72. Described as above. It counts as cell-based. The settings on record: Klebsiella, SPP.Y72, 20 h, read-out: minimum inhibitory concentration (MIC). As to the method:
as §1, §4, §2

In data set [17] the test system is Ser. marcescens IID620. The description is as above. The data set is classed as cell-based. The settings on record: Serratia marcescens, IID620, 20 h, read-out: minimum inhibitory concentration (MIC). As to the method:
as §1, §4, §2

For data set [18], the system named is Ent. cloacae IID977. The description is as above. It counts as cell-based. The settings on record: Enterobacter cloacae, IID977, 20 h, read-out: minimum inhibitory concentration (MIC). As to the method: as §1, §4, §2
Data set [19] relates to E. coli NIHJ. The description is as above. The note with it: Escherichia coli, 20 h, read-out: minimum inhibitory concentration (MIC). The data set is classed as cell-based. As to the method: as §1, §4, §2
The test system of data set [20] is Ps. aeruginosa S-68. Described as above. It counts as cell-based. The settings on record: Pseudomonas aeruginosa, S68, 20 h, read-out: minimum inhibitory concentration (MIC). As to the method: as §1, §4, §2
Data set [21] has as its system K. pneumoniae Y-50. The description is as above. It counts as cell-based. The note with it: Klebsiella pneumoniae, Y50, 20 h, read-out: minimum inhibitory concentration (MIC). As to the method: as §1, §4, §2
In data set [22] the test system is Ps. aeruginosa IFO-3445. The data set is described as above. The data set is classed as cell-based. The note with it: Pseudomonas aeruginosa, IFO3445, 20 h, read-out: minimum inhibitory concentration (MIC). As to the method:
as §1, §4, §2

For data set [23], the system named is C. freundii GN-346 (Cephalosporinase-producing bacterium). The description is as above. It counts as cell-based. The note with it: Citrobacter freundii, GN346, 20 h, read-out: minimum inhibitory concentration (MIC). As to the method: as §1, §4, §2
Data set [24] concerns Prot. vulgaris GN-76. The description is as above. The data set is classed as cell-based. The note with it: Proteus vulgaris, GN76, 20 h, read-out: minimum inhibitory concentration (MIC). As to the method: as §1, §4, §2

T5 sequence (P00811 20-377): as the sequence (P00811 20-377) above

On to `CCN1CCN(C(=O)NC(C(=O)N[C@]2(OC)C(=O)N3C(C(=O)O)=C(CSc4nnnn4C)CS[C@@H]32)c2cccs2)C(=O)C1=O` (some centres unmarked) [Example T-1414], for which the IC50 in data set [1] was 2550 nM; in [4] it was 1230 nM; in data set [5], 811 nM. In [2], the “ED50 (infection-protective activity)” value was determined as 0.84 mg/mouse. Moreover, the MIC worked out at 6.25 µg/mL (≈ 9.39 µM) in data set [3] (S. marcescens W-35, inoculated bacteria quantity 10^6 cells/ml (Table 4), read-out: MIC) and 12.5 µg/mL (≈ 18.8 µM) in data set [3] (S. marcescens W-35, inoculated bacteria quantity 10^8 cells/ml (Table 4), read-out: MIC). The median lethal dose (LD50) – broadly, the dose expected to kill half of the subjects tested – in [6] is not below 5000 mg/kg. Further, the “Stability to β-lactamase, relative degree of hydrolysis” value is less than 0.003 in data set [7]; 0.02 in [8]; 0.03 in data set [9]; less than 0.1 in [10]; less than 0.09 in data set [11].

In the case of `CO[C@@]1(NC(=O)CSCC#N)C(=O)N2C(C(=O)O)=C(CSc3nnnn3C)CS[C@@H]21` [CS-1170, reference compound], the “ED50 (infection-protective activity)” value in data set [2] is given as 15.1 mg/mouse. In addition, the MIC in [3] (S. marcescens W-35, inoculated bacteria quantity 10^6 cells/ml (Table 4)) is 100 µg/mL (≈ 212 µM); in data set [3] (S. marcescens W-35, inoculated bacteria quantity 10^8 cells/ml (Table 4)), 200 µg/mL (≈ 424 µM); in data set [3] (read-out: minimum inhibitory concentration (MIC), Ser. marcescens W-35, 10^6 cells/ml, 20 hours, 37° C. (Table 1)), 100 µg/mL (≈ 212 µM); in data set [12] it was 50 µg/mL (≈ 106 µM); in data set [13], 1.56 µg/mL (≈ 3.31 µM); in [14] it was not below 200 µg/mL. For the same molecule, the MIC in [15] is 25 µg/mL (≈ 53 µM); in data set [16], 12.5 µg/mL (≈ 26.5 µM); in data set [17], 3.13 µg/mL (≈ 6.64 µM); in data set [18] it was not below 200 µg/mL; in [19], 0.39 µg/mL (≈ 0.827 µM); in data set [20], not below 200 µg/mL. The MIC is 0.39 µg/mL (≈ 0.827 µM) in data set [21], not below 200 µg/mL in data set [22], not below 200 µg/mL in data set [23] and 3.13 µg/mL (≈ 6.64 µM) in data set [24].
